What was measured:
[1] = In vitro inhibitory activity against acetylcholinesterase
Cholinesterase = Cholinesterase (Homo sapiens, UniProt P06276); experiment: In vitro inhibitory activity against Butyrylcholinesterase
Sequence of Cholinesterase (P06276 whole entry): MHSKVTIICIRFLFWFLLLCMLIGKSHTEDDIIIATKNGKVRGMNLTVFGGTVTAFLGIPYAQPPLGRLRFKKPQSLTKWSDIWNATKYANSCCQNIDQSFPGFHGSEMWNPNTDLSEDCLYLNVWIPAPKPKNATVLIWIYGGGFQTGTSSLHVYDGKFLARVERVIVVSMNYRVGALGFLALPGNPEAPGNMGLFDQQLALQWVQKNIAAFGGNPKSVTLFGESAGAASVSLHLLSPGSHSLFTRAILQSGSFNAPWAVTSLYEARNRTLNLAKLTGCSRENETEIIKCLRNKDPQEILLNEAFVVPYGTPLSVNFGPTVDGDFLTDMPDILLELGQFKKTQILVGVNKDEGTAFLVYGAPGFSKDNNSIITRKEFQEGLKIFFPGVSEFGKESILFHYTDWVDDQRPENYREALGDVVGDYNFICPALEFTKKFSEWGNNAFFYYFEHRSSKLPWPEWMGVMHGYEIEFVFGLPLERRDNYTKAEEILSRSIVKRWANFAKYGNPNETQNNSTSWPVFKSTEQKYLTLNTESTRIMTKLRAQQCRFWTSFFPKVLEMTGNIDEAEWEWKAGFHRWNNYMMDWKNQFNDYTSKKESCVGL

With `CO[C@@H]1C=CC[C@@H]2Oc3ccc(F)cc3C(=O)[C@@]21C#N` the IC50 [1] was 280 nM and the IC50 (Cholinesterase) was > 2000 nM.

In the case of `CO[C@@H]1C=CC[C@@H]2Oc3ccccc3C(=O)[C@@]21C#N`, the IC50 [1] is reported as 1120 nM and the IC50 (Cholinesterase) is reported as > 2000 nM.

`CO[C@@H]1C=CC[C@@H]2Oc3ccc(Br)cc3C(=O)[C@@]21C#N` gave an IC50 [1] of 1420 nM and an IC50 (Cholinesterase) of 730 nM.

For `COC1CC(=O)C[C@@H]2Oc3ccccc3C(=O)[C@]12C#N` (stereo not given in full), the IC50 [1] was 320 nM and the IC50 (Cholinesterase) was > 2000 nM.

With `COc1ccc2c(c1)C(=O)[C@]1(C#N)C(OC)C=CC[C@@H]1O2` (stereo not given in full) the IC50 [1] was 620 nM and the IC50 (Cholinesterase) was 1410 nM.

With `COC1=CC2CCC1C1Oc3ccccc3C(=O)[C@]21C#N` (stereo not given in full) the IC50 [1] was > 2000 nM and the IC50 (Cholinesterase) was > 2000 nM.

With `N#C[C@]12C(=O)c3ccccc3OC1C1C=CC2CC1` (stereo not given in full) the IC50 [1] was 580 nM and the IC50 (Cholinesterase) was > 2000 nM.

For `COC1C=C(O[Si](C)(C)C(C)(C)C)C[C@@H]2Oc3ccccc3C(=O)[C@]12C#N` (stereo not given in full), the IC50 [1] was > 2000 nM and the IC50 (Cholinesterase) was 350 nM.

For `CO[C@@H]1C=CC[C@@H]2Oc3ccc(Cl)cc3C(=O)[C@@]21C#N`, the IC50 [1] was 240 nM and the IC50 (Cholinesterase) was 270 nM.

In the case of `COC1C=CC[C@@H]2Oc3ccc(C)cc3C(=O)[C@]12C#N` (stereo not given in full), the IC50 [1] is reported as 790 nM and the IC50 (Cholinesterase) is reported as > 2000 nM.
